Data published in patent US4643994A, “Novel organic trithio oxides and method for the preparation thereof” (The Research Foundation of State University of New York, priority 1984, dated 1987).
Like-named read-outs stand apart in the source and are kept apart here.

How the values were obtained:
[1] = tested on: blood platelets (platelet rich, citrated, human blood plasma); experiment: inhibition of platelet aggregation in platelet rich, citrated human blood plasma (aggregometer), agonist ADP or collagen; type: cell-based; settings: for IC50: agonist ADP (10 μg), read-out: ID50 (the source's name)
[2] = tested on: blood platelets (platelet rich, citrated, human blood plasma); experiment: as above; type: cell-based; settings: for IC50: agonist COLLAGEN (2 μg), read-out: ID50 (the source's name)
From the text: (§1) Various substances are known to cause blood platelets to aggregate which in turn can result in blood clots in the blood circulatory system of living animals. Certain other compounds are known to prevent blood platelet aggregation and accordingly are known as antithrombotic agents, while other compounds prevent clotting of aggregated platelets and are called anticoagulants. Both are used in the treatment of phlebitis, stroke, coronary thrombosis, and arteriosclerosis. In a typical test to determine antithrombotic activity, the suspected antithrombotic substance is mixed with a suspension of blood platelets, incubated for a few minutes, and then the suspension is treated with a known amount of a known agonist (agents inducing aggregation). The effectiveness of the suspected antithrombotic is compared to a control which has been treated with the agonist but which has not been treated with the antithrombotic and a quantitative measure of effectiveness is determined by ascertaining the concentration of suspected antithromobotic necessary to reduce by 50% the extent of platelet aggregation compared to the control. This measurement is termed the ID50 of the antithrombotic. Typical agonists include collagen and ADP (adenosine diphosphate).
Platelet rich, citrated, human blood plasma (250,000 platelets/μL) was prepared and divided into 0.45 ml aliquots for use in determining ID50 levels of the subject compounds. The aliquots were treated with various quantities of the compounds of the instant invention and thereafter were preincubated by maintaining in an aggregometer curvette for two (2) minutes at 37° C. with stirring (950 RPM). Control aliquots free of antithrombotic component, were maintained and subjected to each of the processing steps. Each aliquot was then treated with an agonist in this instance being an appropriate amount of ADP (10 μmole) or collagen (2 μg). Aggregation in each aliquot was monitored for a period of 3-5 minutes and percent aggregation was quantified by a dual channel aggregometer which ascertained percent aggregation by comparision against a control of light transmittance through the sample.

[3] = tested on: blood platelets; experiment: antithrombotic activity in combination with other known antithrombotics
From the text: as §1

[4] = tested on: S. Aureus bacteria; experiment: antibacterial activity against S. Aureus; type: cell-based

**Q.** Which IC50 ([1]; Homo sapiens, Platelet) does the source give for `CSS/C=C/C[S+](C)[O-]` (stereo not shown) [Aliquot 5, (E) 2,3,7-trithiaocta-4-ene 7-oxide] here?
**A.** The IC50 was > 400 µM.

**Q.** What about the IC50 ([2]; Homo sapiens, Platelet) of the same compound?
**A.** The IC50 was 332 µM.

**Q.** `C=CCS(=O)(=O)C/C=C/SSCCC` [Aliquot 10] was tested. Which IC50 ([1]; Homo sapiens, Platelet) did it give?
**A.** Its IC50 is 210 µM.

**Q.** How did the IC50 [1] turn out when “(E,Z)-4,5,9-trithiadodeca-1,6,11-triene 9,9dioxide [Example 2]” was run?
**A.** The IC50 was 209 µM.

**Q.** What about the IC50 [2] of the same compound?
**A.** The IC50 was 214 µM.

**Q.** With “(E)-4,5,9-trithiadodeca-6,11-diene 9,9 dioxide [Aliquot 10]” as the compound, how does the IC50 [1] read?
**A.** Its IC50 is 182 µM.

**Q.** Which “ID50 columns: result in words” value ([2]; printed across the ADP (10 μg) and COLLAGEN (2 μg) columns) does the source give for `C=CCS(=O)(=O)C/C=C/SS(=O)(=O)CC=C` [Aliquot 8] here?
**A.** Its value is “Causes Aggregation”.

**Q.** With `C=CCSS/C=C/C[S+](C)[O-]` (stereo not shown) [Aliquot 4] as the compound, how does the IC50 ([1]; Homo sapiens, Platelet) read?
**A.** The IC50 was > 400 µM.

**Q.** And the IC50 ([2]; Homo sapiens, Platelet)?
**A.** Its IC50 is 374 µM.

**Q.** With `CCCCC[C@H](O)/C=C/[C@@H]1[C@H]2C/C(=C/CCCC(=O)O)O[C@H]2C[C@H]1O` [prostacyclin] as the compound, how does the “antithrombotic activity when combined with various compounds of the invention” value [3] read?
**A.** Its value is “particularly enhanced antithrombotic activity”.

**Q.** `C=CCSSCCC[S+]([O-])CC=C` (stereo not shown) [Aliquot 3] was tested. Which IC50 ([1]; Homo sapiens, Platelet) did it give?
**A.** Its IC50 is > 400 µM.

**Q.** And the IC50 ([2]; Homo sapiens, Platelet)?
**A.** Its IC50 is > 400 µM.

**Q.** `COc1ccc2c(c1)c(CC(=O)O)c(C)n2C(=O)c1ccc(Cl)cc1` [Indomethacin, indomethacin] was tested. Which “antithrombotic activity when combined with various compounds of the invention” value [3] did it give?
**A.** Its value is “particularly enhanced antithrombotic activity”.

**Q.** With `C=CCS(=O)(=O)C/C=C/SS(=O)(=O)CC=C` [Aliquot 8, (E) 4,5,9-trithiadodeca-1,6,11-triene 4,4,9,9-tetraoxide] as the compound, how does the “effect on platelet aggregation” value ([1]; at levels of 40 μg/ml of ADP) read?
**A.** The value was “appears to act as an agonist”.

**Q.** Which IC50 ([1]; Homo sapiens, Platelet) does the source give for `C=CCS(=O)(=O)C/C=C/SSC/C=C\CCC` [Aliquot 13] here?
**A.** The IC50 was 280 µM.

**Q.** Which results are given for `C=CC[S+]([O-])CC=CSS(=O)(=O)CC=C` (stereo not shown) [Example 5, (E,Z)-4,5,9-trithiadodeca-1,6,11-triene 4,4,9-trioxide]?
**A.** growth of S. Aureus bacteria ([4]; 0.25 m. molar concentration): growth of the bacteria was inhibited; killing of S. Aureus bacteria ([4]; 1.0 m. molar concentration): killing of the bacteria

**Q.** `C=CCS(=O)(=O)C/C=C/SSC/C=C/CCC` [Aliquot 14] was tested. Which IC50 ([1]; Homo sapiens, Platelet) did it give?
**A.** Its IC50 is > 400 µM.

**Q.** For `C=CCSS/C=C/C[S+]([O-])CCCC(=O)OCC` (stereo not shown) [Aliquot 9], which IC50 ([1]; Homo sapiens, Platelet) is on record?
**A.** Its IC50 is 388 µM.

**Q.** What about the IC50 ([2]; Homo sapiens, Platelet) of the same compound?
**A.** The IC50 was 388 µM.

**Q.** With `C=CCS(=O)(=O)C/C=C/SSC/C=C/C` [Aliquot 11] as the compound, how does the IC50 ([1]; Homo sapiens, Platelet) read?
**A.** The IC50 was 208 µM.

**Q.** With `C=CCS(=O)(=O)C/C=C/SSCc1ccccc1` [Aliquot 12] as the compound, how does the IC50 ([1]; Homo sapiens, Platelet) read?
**A.** Its IC50 is 204 µM.
